# Where “and” joins values, the source holds several entries; their conditions need not be identical. Equal entries are not always repeated. Where two headings read alike, the source gives them in different places.
# Columns and labels:
# [1] = tested on: Enrlich carcinoma; experiment: Antineoplastic activity against Enrlich carcinoma (life prolongation rate); type: in vivo, 5-week-old ICR mice (male); parameters: response vs control in vivo: dose or concentration left out as unconfirmed; settings: for response vs control in vivo at 2 mg/kg / response vs control in vivo at 8 mg/kg / response vs control in vivo at 16 mg/kg / response vs control in vivo / response vs control in vivo at 4 mg/kg / response vs control in vivo at 1 mg/kg: Mus musculus, ip, 1440 h, read-out: Life prolongation rate (T/C %); for response vs control in vivo at 1 mg/kg: 1.0 mg/kg/day
# Procedure: Approximately 10^6 cells/0.2 ml of Enrlich carcinoma were inoculated into the abdominal cavity of each of the 5-week-old ICR mice (male) used for the test, and the test compounds were administered intraperitoneally to the mice of the treated group once a day for a period of 7 days, starting from the day after said inoculation. The mice of the control group was administered with a saline solution in the same way. Observation of the animals of both groups was continued for 60 days after the administration, and the life prolongation rate (T/C%, T/C×100) was determined from the average duration (days) of life of the mice of the treated group (T) and that of the mice of the control group (C).
# [2] = in vivo; settings: mouse, ip, LD50, intraperitoneal, once a day, 7 days, mice
# [3] = 2.0 mg/kg/day, intraperitoneal, once a day, 7 days
# [4] = 8.0 mg/kg/day, intraperitoneal, once a day, 7 days
# [5] = […], intraperitoneal, once a day, 7 days
# [6] = intraperitoneal, once a day, 7 days
# [7] = […], intraperitoneal, (Note 1) administered for 4 days
# [8] = […], intraperitoneal, (Note 2) administered for 2 days
SMILES,"response vs control in vivo at 2 mg/kg [1, 3]","response vs control in vivo at 8 mg/kg [1, 4]",LD50 [2],"response vs control in vivo [1, 6]",also measured
"c1ccc(-c2ccncc2)cc1 [Compound 1-11, Selenium oxychloride-4-phenylpyridine (1:2) complex]",166%,230%,> 16 mg/kg,–,"response vs control in vivo at 16 mg/kg [1, 5]: 221%"
"CCC1(CC)CO[Se](=O)OC1 [Compound 3-9, 2,2-diethyl-1,3-propanediolselenite]",152%,223%,> 16 mg/kg,204%,"response vs control in vivo at 16 mg/kg [1, 5]: 194%"
"Brc1cccnc1 [Compound 1-14, Selenium oxychloride-3-bromopyridine (1:2) complex]",163%,202%,8 to 16 mg/kg,179%,"response vs control in vivo at 16 mg/kg [1, 7]: 147%"
"Cc1ccccn1 [Compound 1-2, Selenium oxychloride-2-picoline (1:2) complex]",–,–,8 to 16 mg/kg,–,response vs control in vivo at 2 mg/kg [1]: 176%; response vs control in vivo at 4 mg/kg [1]: 169%; response vs control in vivo at 8 mg/kg [1]: 194%; response vs control in vivo at 16 mg/kg [1]: 75%
"O=P(c1ccccc1)(c1ccccc1)c1ccccc1 [Compound 1-36, Selenium oxycloride-triphenylphosphine oxide (1:2) complex]",155%,–,> 16 mg/kg,186%,"response vs control in vivo at 16 mg/kg [1, 5]: 197%"
"CC(C)c1ccncc1 [Compound 1-7, Selenium oxychloride-4-isopropylpyridine (1:2) complex]",–,256%,8 to 16 mg/kg,222%,"response vs control in vivo at 16 mg/kg [1, 7]: 201%"
"Clc1cncc(Cl)c1 [Compound 1-15, Selenium oxychloride-3,5-dichlorpyridine (1:2) complex]",154%,191%,8 to 16 mg/kg,174%,"response vs control in vivo at 16 mg/kg [1, 7]: 162%"
"CCCCCCC(Cl)CO[Se](=O)OCC(Cl)CCCCCC (stereo not drawn) [Compound 3-4, Di-(2-chlorooctyl)selenite]",156%,180%,8 to 16 mg/kg,208%,"response vs control in vivo at 16 mg/kg [1, 7]: 53%"
"CCc1ccncc1 [Compound 1-6, Selenium oxychloride-4-ethylpyridine (1:2) complex]",173%,244%,8 to 16 mg/kg,209%,"response vs control in vivo at 16 mg/kg [1, 7]: 103%"
"Cn1c(=O)c2c(ncn2Cc2ccccc2)n(C)c1=O [Compound 1-33, Selenium oxychloride-N--benzyltheophylline (1:2) complex]",138%,214%,> 16 mg/kg,–,"response vs control in vivo at 16 mg/kg [1, 5]: 205%"
"Cn1cnc2c1c(=O)n(Cc1ccccc1)c(=O)n2C [Compound 1-34, Selenium oxychloride-N--benzyltheobromine (1:2) complex]",122%,187%,> 16 mg/kg,159%,"response vs control in vivo at 16 mg/kg [1, 5]: 190%"
"Cn1cncc1Br [Compound 1-28, Selenium oxychloride-1-methyl-5-bromoimidazole (1:2) complex]",–,215%,> 16 mg/kg,217%,"response vs control in vivo at 16 mg/kg [1, 7]: 264%"
"O=[Se](OC1CCCCC1Cl)OC1CCCCC1Cl (stereo not drawn) [Compound 3-6, Di-(2-chlorcyclohexyl)selenite]",210%,253%,8 to 16 mg/kg,216%,"response vs control in vivo at 16 mg/kg ([1]; […], intraperitoneal, (Note 3) administered for 3 days): 95%"
"N#Cc1cccnc1 [Compound 2-7, Tetrachloroselenium-3-cyanopyridine (1:2) complex]",–,–,8 to 16 mg/kg,–,"response vs control in vivo at 2 mg/kg ([1]; 2.0 mg/kg/day, intraperitoneal, 7 days, solvent used: DMSO): 201%; response vs control in vivo at 8 mg/kg ([1]; 8.0 mg/kg/day, intraperitoneal, 7 days, solvent used: DMSO): 214%; response vs control in vivo at 16 mg/kg ([1]; […], intraperitoneal, 7 days, solvent used: DMSO): 67%; response vs control in vivo ([1]; intraperitoneal, 7 days, solvent used: DMSO): 243%"
"CC(C)(Cl)CO[Se](=O)OCC(C)(C)Cl [Compound 3-2, Di-(2-chloro-2-methylpropyl)-selenite]",178%,207%,8 to 16 mg/kg,232%,"response vs control in vivo at 16 mg/kg [1, 8]: 63%"
"CCC(Cl)CO[Se](=O)OCC(Cl)CC (stereo not drawn) [Compound 3-3, Di-(2-chlorobutyl)selenite]",205%,212%,> 8 mg/kg,230%,"response vs control in vivo at 1 mg/kg [1, 6]: 172%"
"Clc1cccnc1 [Compound 1-13, Selenium oxychloride-3-chloropyridine (1:2) complex]",–,–,8 to 16 mg/kg,–,response vs control in vivo at 2 mg/kg [1]: 142%; response vs control in vivo at 4 mg/kg [1]: 172%; response vs control in vivo at 8 mg/kg [1]: 158%; response vs control in vivo at 16 mg/kg [1]: 84%
"c1ccc(-c2cccnc2)cc1 [Compound 1-10, Selenium oxychloride-3-phenylpyridine (1:2) complex]",251%,203%,> 16 mg/kg,192%,"response vs control in vivo at 16 mg/kg [1, 5]: 199%"
"Fc1cccnc1 [Compound 1-12, Selenium oxychloride-3-fluoropyridine (1:2) complex]",194%,201%,8 to 16 mg/kg,219%,"response vs control in vivo at 16 mg/kg [1, 8]: 140%"
O=[Se](OCC(Cl)c1ccccc1)OCC(Cl)c1ccccc1 (stereo not drawn) [Compound 3-5],154%,223%,> 16 mg/kg,194%,"response vs control in vivo at 16 mg/kg ([1]; […], intraperitoneal, (Note 5) administered for 6 days): 167%"
"CC(Cl)C(C)O[Se](=O)OC(C)C(C)Cl (stereo not drawn) [Compound 3-1, Di-(2-chloro-1-methylpropyl)-selenite]",177%,193%,8 to 16 mg/kg,179%,"response vs control in vivo at 16 mg/kg [1, 5]: 90%"
"CCC1CO[Se](=O)O1 (stereo not drawn) [Compound 3-8, 1,2-butanediolselenite]",250%,212%,> 8 mg/kg,194%,"response vs control in vivo at 1 mg/kg [1, 6]: 208%"
"O=[Se](OC1C2CCC(C2)C1Cl)OC1C2CCC(C2)C1Cl (stereo not drawn) [Compound 3-7, Di-(3-chloronorbonyl-2-il)selenite]",143%,201%,8 to 16 mg/kg,148%,"response vs control in vivo at 16 mg/kg [1, 7]: 119%"
"c1ccncc1 [Compound 1-1, Selenium oxybromide-pyridine (1:2) complex]",–,–,8 to 16 mg/kg,–,"Life prolongation rate (T/C %) ([1]; mouse, in vivo): 165% and 173% and 181% and 130%"
"CN(C)c1ccncc1 [Compound 3-12, Selenium oxychloride-4-dimethylaminopyridine (1:2) complex]",–,–,> 16 mg/kg,–,response vs control in vivo at 2 mg/kg [1]: 169%; response vs control in vivo at 4 mg/kg [1]: 183%; response vs control in vivo at 8 mg/kg [1]: 232%; response vs control in vivo at 16 mg/kg [1]: 190%

# Reference: US4824955A, “Selenium oxy chloride-pyridine or bipyridine complexes” (Nippon Kayaku Kabushiki Kaisha, priority 1985, dated 1989)
